# What was measured:
# Type in all cases: functional
# T47D = experiment: Growth inhibition of human T47D cells assessed as cell growth at 1 uM after 48 hrs by SRB assay; settings: read-out: Activity
# HOP-62 [1] = experiment: Growth inhibition of human HOP62 cells assessed as cell growth at 10 uM after 48 hrs by SRB assay; settings: HOP-62, 48 h, read-out: Activity
# HOP-92 = experiment: Growth inhibition of human HOP92 cells assessed as cell growth at 10 uM after 48 hrs by SRB assay; settings: HOP-92, 48 h, read-out: Activity
# NCI-H322M = experiment: Growth inhibition of human NCI-H322M cells assessed as cell growth at 10 uM after 48 hrs by SRB assay; settings: read-out: Activity
# [2] = Growth inhibition of human […] cells after 48 hrs by […] growth inhibition assay
# NCI-H226 = experiment: Growth inhibition of human NCI-H226 cells after 48 hrs by […] growth inhibition assay; settings: NCI-H226, 48 h
# SNB-75 [3] = experiment: Growth inhibition of human SNB75 cells after 48 hrs by […] growth inhibition assay; settings: SNB-75, 48 h
# IGROV-1 [4] = experiment: Growth inhibition of human IGROV1 cells after 48 hrs by […] growth inhibition assay; settings: IGROV-1, 48 h
# OVCAR-3 = experiment: Growth inhibition of human OVCAR3 cells after 48 hrs by […] growth inhibition assay; settings: OVCAR-3, 48 h
# TK-10 = experiment: Growth inhibition of human TK10 cells after 48 hrs by […] growth inhibition assay; settings: TK-10, 48 h
# HOP-62 [5] = experiment: Growth inhibition of human HOP62 cells assessed as cell growth at 0.1 uM after 48 hrs by SRB assay; settings: HOP-62, 48 h, read-out: Activity
# SNB-75 [6] = experiment: Growth inhibition of human SNB75 cells assessed as cell growth at 0.1 uM after 48 hrs by SRB assay; settings: SNB-75, 48 h, read-out: Activity
# U-251 [7] = experiment: Growth inhibition of human U251 cells assessed as cell growth at 0.1 uM after 48 hrs by SRB assay; settings: U-251, 48 h, read-out: Activity
# ACHN = experiment: Growth inhibition of human ACHN cells assessed as cell growth at 0.1 uM after 48 hrs by SRB assay; settings: read-out: Activity
# UO-31 = experiment: Growth inhibition of human UO31 cells assessed as cell growth at 0.1 uM after 48 hrs by SRB assay; settings: UO-31, 48 h, read-out: Activity
# DU-145 [8] = experiment: Growth inhibition of human DU145 cells assessed as cell growth at 0.1 uM after 48 hrs by SRB assay; settings: DU-145, 48 h, read-out: Activity
# MCF7 [9] = experiment: Growth inhibition of human MCF7 cells assessed as cell growth at 0.1 uM after 48 hrs by SRB assay; settings: MCF7, 48 h, read-out: Activity
# MDA-MB-231 = experiment: Growth inhibition of human MDA-MB-231 cells assessed as cell growth at 0.1 uM after 48 hrs by SRB assay; settings: MDA-MB-231, 48 h, read-out: Activity
# U-251 [10] = experiment: Growth inhibition of human U251 cells assessed as cell growth at 10 uM after 48 hrs by SRB assay; settings: U-251, 48 h, read-out: Activity
# UACC-257 = experiment: Growth inhibition of human UACC257 cells assessed as cell growth at 10 uM after 48 hrs by SRB assay; settings: UACC-257, 48 h, read-out: Activity
# IGROV-1 [11] = experiment: Growth inhibition of human IGROV1 cells assessed as cell growth at 10 uM after 48 hrs by SRB assay; settings: IGROV-1, 48 h, read-out: Activity
# OVCAR-4 = experiment: Growth inhibition of human OVCAR4 cells assessed as cell growth at 10 uM after 48 hrs by SRB assay; settings: OVCAR-4, 48 h, read-out: Activity
# MCF7 [12] = experiment: Growth inhibition of human MCF7 cells assessed as cell growth at 10 uM after 48 hrs by SRB assay; settings: MCF7, 48 h, read-out: Activity
# CCRF-CEM = experiment: Growth inhibition of human CCRF-CEM cells assessed as cell growth at 100 uM after 48 hrs by SRB assay; settings: read-out: Activity
# SNB-19 = experiment: Growth inhibition of human SNB19 cells assessed as cell growth at 100 uM after 48 hrs by SRB assay; settings: SNB-19, 48 h, read-out: Activity
# Malme-3M = experiment: Growth inhibition of human MALME-3M cells assessed as cell growth at 100 uM after 48 hrs by SRB assay; settings: read-out: Activity
# DU-145 [13] = experiment: Growth inhibition of human DU145 cells assessed as cell growth at 100 uM after 48 hrs by SRB assay; settings: DU-145, 48 h, read-out: Activity
# NCI-H23 = experiment: Growth inhibition of human NCI-H23 cells assessed as cell growth at 1 mM after 48 hrs by SRB assay; settings: NCI-H23, 48 h, read-out: Activity
# COLO 205 = experiment: Growth inhibition of human COLO205 cells assessed as cell growth at 1 mM after 48 hrs by SRB assay; settings: COLO 205, 48 h, read-out: Activity
# RXF 393 = experiment: Growth inhibition of human RXF393 cells assessed as cell growth at 1 mM after 48 hrs by SRB assay; settings: RXF 393, 48 h, read-out: Activity
# [14] = Growth inhibition of human […] cells assessed as cell growth at 1 uM after 48 hrs by SRB assay; settings: read-out: Activity
# HCC 2998 = experiment: Growth inhibition of human HCC2998 cells assessed as cell growth at 1 uM after 48 hrs by SRB assay; settings: HCC 2998, 48 h, read-out: Activity
# HT-29 = experiment: Growth inhibition of human HT-29 cells assessed as cell growth at 1 uM after 48 hrs by SRB assay; settings: HT-29, 48 h, read-out: Activity
# K562 = experiment: Growth inhibition of human K562 cells assessed as cell growth at 10 uM after 48 hrs by SRB assay; settings: K562, 48 h, read-out: Activity
# [15] = read-out: LC50 (the source's name)
# [16] = read-out: pLC50 (the source's name) (converted)
smiles,measurement,setting,value
CNC(=O)NC[C@H]1O[C@@H](n2cnc3c(NC(=O)Nc4ccccc4)ncnc32)[C@H](O[Si](C)(C)C(C)(C)C)[C@@H]1O[Si](C)(C)C(C)(C)C,growth at 1 µM,T47D,105%
same,growth at 10 µM,HOP-62 [1],105%
same,growth at 10 µM,HOP-92,69%
same,growth at 10 µM,NCI-H322M,105%
same,GI50,[2]; read-out: GI50,3.27 µM
same,CC50,[2]; [15],> 100 µM
same,TGI,[2]; read-out: TGI,> 100 µM
same,GI50,[2]; read-out: pGI50 (converted),3.31 µM
same,CC50,[2]; [16],> 100 µM
same,TGI,[2]; read-out: pTGI (converted),> 100 µM
same,GI50,NCI-H226; read-out: GI50,3.1 µM
same,CC50,NCI-H226; [15],> 100 µM
same,TGI,NCI-H226; read-out: TGI,8.63 µM
same,GI50,NCI-H226; read-out: pGI50 (converted),3.09 µM
same,CC50,NCI-H226; [16],> 100 µM
same,TGI,NCI-H226; read-out: pTGI (converted),8.71 µM
same,GI50,SNB-75 [3]; read-out: GI50,2.43 µM
same,CC50,SNB-75 [3]; [15],> 100 µM
same,TGI,SNB-75 [3]; read-out: TGI,34.1 µM
same,GI50,SNB-75 [3]; read-out: pGI50 (converted),2.45 µM
same,CC50,SNB-75 [3]; [16],> 100 µM
same,TGI,SNB-75 [3]; read-out: pTGI (converted),33.9 µM
same,GI50,IGROV-1 [4]; read-out: GI50,2.74 µM
same,CC50,IGROV-1 [4]; [15],> 100 µM
same,TGI,IGROV-1 [4]; read-out: TGI,7.76 µM
same,GI50,IGROV-1 [4]; read-out: pGI50 (converted),2.75 µM
same,CC50,IGROV-1 [4]; [16],> 100 µM
same,TGI,IGROV-1 [4]; read-out: pTGI (converted),7.76 µM
same,GI50,OVCAR-3; read-out: GI50,2.6 µM
same,CC50,OVCAR-3; [15],98.2 µM
same,TGI,OVCAR-3; read-out: TGI,5.54 µM
same,GI50,OVCAR-3; read-out: pGI50 (converted),2.63 µM
same,CC50,OVCAR-3; [16],97.7 µM
same,TGI,OVCAR-3; read-out: pTGI (converted),5.5 µM
same,GI50,TK-10; read-out: GI50,4.29 µM
same,CC50,TK-10; [15],> 100 µM
same,TGI,TK-10; read-out: TGI,72.6 µM
same,GI50,TK-10; read-out: pGI50 (converted),4.27 µM
same,CC50,TK-10; [16],> 100 µM
same,TGI,TK-10; read-out: pTGI (converted),72.4 µM
same,growth at 0.1 µM,HOP-62 [5],102%
same,growth at 0.1 µM,SNB-75 [6],94%
same,growth at 0.1 µM,U-251 [7],102%
same,growth at 0.1 µM,ACHN,107%
same,growth at 0.1 µM,UO-31,87%
same,growth at 0.1 µM,DU-145 [8],103%
same,growth at 0.1 µM,MCF7 [9],99%
same,growth at 0.1 µM,MDA-MB-231,105%
same,growth at 10 µM,U-251 [10],93%
same,growth at 10 µM,UACC-257,104%
same,growth at 10 µM,IGROV-1 [11],98%
same,growth at 10 µM,OVCAR-4,100%
same,growth at 10 µM,MCF7 [12],83%
same,growth at 100 µM,CCRF-CEM,9%
same,growth at 100 µM,SNB-19,29%
same,growth at 100 µM,Malme-3M,-1%
same,growth at 100 µM,DU-145 [13],-35%
same,growth at 1000 µM,NCI-H23,-53%
same,growth at 1000 µM,COLO 205,-94%
same,growth at 1000 µM,RXF 393,-77%
same,growth at 1 µM,[14],98%
same,growth at 1 µM,HCC 2998,93%
same,growth at 1 µM,HT-29,104%
CNC(=O)OC[C@H]1O[C@@H](n2cnc3c(NC(=O)Nc4ccccc4)ncnc32)[C@H](O[Si](C)(C)C(C)(C)C)[C@@H]1O[Si](C)(C)C(C)(C)C,growth at 10 µM,K562,75.4%
same,growth at 10 µM,HOP-62 [1],104%
same,growth at 10 µM,HOP-92,54.7%
same,growth at 10 µM,NCI-H322M,118%
same,growth at 10 µM,U-251 [10],86%
same,growth at 10 µM,IGROV-1 [11],111%
same,growth at 10 µM,OVCAR-4,85.8%
same,growth at 10 µM,MCF7 [12],87.8%
